Measurements reported in US20230213527A1, “COMPOSITIONS AND METHODS FOR POLYPEPTIDE ANALYSIS” (Quantum-Si Incorporated, priority 2021, published 2023).
Square brackets hold non-standard residues; d marks the D form. Ends that are not written are not given here. Cit = NC(=O)NCCC[C@H](N)C(=O)O

Legend:
PS610 = assay: Dynamic single-molecule sequencing, recognition by PS610; assay type: binding, A. tumefaciens
PhTET3 = target: T1, PhTET3 (Pyrococcus horikoshii, UniProt O59485); assay: Aminopeptidase cleavage during dynamic sequencing with PhTET3; assay type: biochemical, P. horikoshii
T1 construct: His tag (inferred: purified as the recognizers, on Ni-NTA); made in house; host or cells: E. coli BL21(DE3)
T1 sequence (O59485 1-354): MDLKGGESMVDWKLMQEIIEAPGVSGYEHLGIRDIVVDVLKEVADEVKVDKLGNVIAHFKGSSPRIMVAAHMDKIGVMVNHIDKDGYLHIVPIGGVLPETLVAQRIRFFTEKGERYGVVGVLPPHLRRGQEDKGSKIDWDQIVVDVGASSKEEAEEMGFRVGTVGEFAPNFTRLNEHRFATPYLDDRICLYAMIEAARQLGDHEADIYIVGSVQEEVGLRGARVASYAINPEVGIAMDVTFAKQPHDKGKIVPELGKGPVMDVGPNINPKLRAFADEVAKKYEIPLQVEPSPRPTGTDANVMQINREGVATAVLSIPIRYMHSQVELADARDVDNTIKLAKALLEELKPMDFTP
From the text: The collected traces consisted of regions of distinct pulsing, which were referred to as recognition segments (RSs), separated by regions lacking recognition pulsing (non-recognition segments, NRSs). Analysis software was developed to automatically identify pulsing regions and transition points within traces (Methods). Traces began with recognition of phenylalanine with a median PD of 2.36 s (FIG. 2D), in agreement with the PD observed for FAA in recognition-only assays. This pattern terminated after aminopeptidase addition (on average 11 min after addition), and was followed by the ordered appearance of two RSs with median PDs of 0.25 s and 0.49 s (FIG. 2D), corresponding to the short and medium PDs obtained in YAA and WAA recognition-only assays.
(§1) A second chip check was then performed. […] Data was recorded for 15 min.

PS961 [1] = assay: NAA recognition-only single-molecule assay on chip with PS961; assay type: binding, Planctomycetes; conditions: 250 nM PS961
Chain of PS961 (as listed by the source): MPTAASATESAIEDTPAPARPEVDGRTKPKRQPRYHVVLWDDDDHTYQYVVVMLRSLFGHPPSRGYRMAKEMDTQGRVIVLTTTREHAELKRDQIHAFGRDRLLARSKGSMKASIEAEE
From the text: To expand the set of recognizable NAAs, N-end rule pathway proteins were investigated as a source of additional recognizers. In a comprehensive screen of diverse ClpS family proteins, a group of ClpS proteins from the bacterial phylum Planctomycetes with native binding to N-terminal leucine, isoleucine, and valine was discovered. […] The median PD of binding to peptides with N-terminal LAA, IAA, and VAA was 1.21, 0.28, and 0.21 s, respectively, in agreement with bulk characterization (FIG. 7C).
as §1
The resulting regions are called recognition segments (RSs).

PS961 [2] = assay: Dynamic single-molecule sequencing, recognition by PS961; assay type: binding, Planctomycetes
Method: The semiconductor chip was placed in the sequencing device and a chip check was performed to test electronic circuit function and to optimize laser coupling alignment. The chip was then removed from the device socket and the chip was washed twice with 50 μL of 70% isopropanol, followed by four washes with 30 μL of wash buffer (50 mM MOPS pH 8.0, 60 mM potassium acetate, 50 mM glucose, 20 mM magnesium acetate, and surfactant mix) through a flow cell attached to the chip. A second chip check was then performed. The laser was then blocked via an integrated software-controlled shutter, peptide complex was added to a final concentration of 1-10 nM and mixed thoroughly, and the chip was incubated for 15 min. The chip was then washed six times with wash buffer, followed by addition of an imaging solution (wash buffer with 5 mM Trolox and an oxygen scavenging system). The laser was unblocked and the occupancy percentage (target 10-30%, Poisson distributed) was recorded by acquiring a photobleaching signal from a fluorophore attached to the peptide complex during 5 min of laser illumination. For NAA recognition-only assays, after peptide loading, labeled recognizer was added to a final concentration of 50 nM PS610, 100 nM PS691, or 250 nM PS961 (as indicated according to the experiment), and data was recorded for 10 hours. For dynamic sequencing assays, after peptide loading, a mixture of labeled recognizers was added to obtain final concentrations of 50 nM PS610, 100 nM PS691, and 250 nM PS961. Data was recorded for 15 min. The laser was then blocked briefly and aminopeptidases were added to the sequencing reaction via the flow cell and mixed thoroughly (final concentration 2-8 μM PhTET2 and/or 20-80 μM PhTET3, as indicated according to the experiment). The laser was then unblocked, and data was recorded for 10 hours. For all runs, 30 μL of mineral oil was added to fluid reservoirs at each port of the flow cell to prevent evaporation during the run.
The measured signal on-chip comprises various noise components, the most dominant one being due to fluorescent emissions from diffusing recognizers in the reaction chamber. The pulse caller algorithm for a given reaction chamber starts by estimating the statistical properties of this background noise component. Once an estimate within certain error bounds has been established, the algorithm works in an online fashion observing new frames of data as they are generated. At each point in time, the algorithm maintains state indicating whether the signal is due to the background component only or a pulse from a recognizer-NAA interaction is being observed. The state transition from background to pulse is triggered using an edge detection test where the shift in signal is expected to be significant with respect to the background component's statistical distribution. The state transition from pulse to background is triggered when a small window of the most recent frames of the signal appears to conform to the background component's distribution again. The algorithm maintains an updated model of the background component as new background frames are observed. This provides robustness against drift in the signal intensity together with a feedback control loop that maintains a stable optical coupling of the laser into the chip based on any such detected drift. As detected pulses can be due to true recognizer-to-dipeptide interaction events as well as other occasional transient noise spikes, a downstream filter layer is employed to test the significance of pulse events based on their duration, intensity, and noise patterns within the context of the full timeline of the run and the entire dataset of reaction chambers.
Initial regions are determined by performing a sliding window calculation of pulse rate along the time dimension of a series of pulses. Regions with a mean pulse rate >1 pulse/min are then subdivided according to a greedy bisection approach.

PS1223 = assay: Dynamic single-molecule sequencing, recognition by PS1223; assay type: binding; conditions: recognizer PS1223, recognition of the N-terminal amino acid
Chain of PS1223 (as listed by the source): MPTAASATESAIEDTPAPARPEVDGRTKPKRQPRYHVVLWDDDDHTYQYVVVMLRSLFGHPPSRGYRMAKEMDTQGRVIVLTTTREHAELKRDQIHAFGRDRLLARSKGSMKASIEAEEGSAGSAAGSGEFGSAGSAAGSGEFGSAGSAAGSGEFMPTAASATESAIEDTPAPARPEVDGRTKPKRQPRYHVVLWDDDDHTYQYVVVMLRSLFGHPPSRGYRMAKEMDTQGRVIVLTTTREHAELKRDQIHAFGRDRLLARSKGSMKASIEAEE
Method: Sequencing reactions using the recognizers PS610 (FYW), PS1220 (R), and PS1223 (LIV) were performed separately for the QP706 and QP1073 peptide fragments. Each recognizer was labeled with a unique dye and/or unique number of dyes. A scatter plot of bin ratio v. pulse duration is shown for the QP706 peptide fragment in FIG. 18A and for the QP1073 peptide fragment in FIG. 18B. In the plot of FIG. 18A, three clusters corresponding to FLE, LEQ, and RFL segments are visible. […] In the plot of FIG. 18B, two clusters corresponding to FLE and LEQ segments are visible, but there is no cluster corresponding to RFL.
In this example, sequencing reactions were conducted for 4 pairs of unmodified and citrullinated peptides: QP1028 & QP1029, QP1030 & QP1031, QP1032 & QP1033, and QP707 & QP789. […] For the QP1028 & QP1029 and QP1030 & QP1031 pairs, sequencing reactions were conducted using the PS610 (FYW) recognizer. For the QP1032 & QP1033 and QP707 & QP789 pairs, sequencing reactions were conducted using the PS1223 (LIV) recognizer.

PS621 = target: T2, PS621 (Kluyveromyces lactis, UniProt O60014, E174T/N105S/N176F/R116K/S153T/V146T); assay: Dynamic single-molecule sequencing, recognition by PS621; assay type: binding; conditions: citrulline at position 2
T2 construct: PS621; […]
T2 sequence (O60014 other isoform, or with tags, fused parts or gaps N105S/R116K/V146T/S153T/E174T/N176F): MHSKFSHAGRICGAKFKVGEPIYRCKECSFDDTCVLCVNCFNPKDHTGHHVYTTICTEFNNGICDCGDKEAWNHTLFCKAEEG

FAAWAAYAA [FAAWAAYAAAADDD]
Median PD, recognition of phenylalanine (first RS) (PS610; PS610, PhTET3 added after 15 minutes): 2.36 s
Median PD, first RS appearing after phenylalanine (PS610; PS610 with PhTET3): 0.25 s
Median PD, second RS appearing after phenylalanine (PS610; PS610 with PhTET3): 0.49 s
Termination of phenylalanine recognition pattern after aminopeptidase addition (average) (PhTET3): 11 min

IAA: peptide with N-terminal IAA; in b185 the N-terminal IAA state of LAQFASIAAYASDDD (not fully specified (C-terminus); also: C-terminal azidolysine conjugated to DNA-streptavidin linker)
Median PD of binding (PS961 [1]): 0.28 s
Median PD (PS961 [2]; peptide LAQFASIAAYASDDD, PS610 and PS961, PhTET2 and PhTET3): 0.25 s

LCitLAFAYPDDDK (L[Cit]LAFAYPDDDK) [QP789]
Median PD of recognition of N-terminal leucine by PS961 (PS961 [2]; arginine or citrulline at position 2): 0.78 s
Pulse Width (PS1223): 0.92 s
N-terminal arginine recognition by PS621 (PS621): eliminated
